Data on 2 compounds can be found in US10398720B2, “Compound of the avermectin family or of the milbemycin family for the treatment and/or prevention of atopic dermatitis” (GALDERMA SA, priority 2013, dated 2019).

The assay deals with Der f-induced AD mouse model. As to the kind of experiment: Dermatophagoides farinae (Der f)-induced atopic dermatitis (AD)-like mouse model, topical route. Format: in vivo, Balb/c mice. To be noted: for cytokine concentration / production (IL-10, IL-13, IL-17, IL-4, IL-5, IFNg; FIG. 5): 0.1% ivermectin; for inflammatory response induced by Der f application: topical daily day 19 to day 36, solutions in acetone, ivermectin 0.003-0.1%; for ear edema (ear thickness, FIG. 1): topical daily day 19 to day 36. Here is the method:
1.1. […] Der f has been purchased from Greer Laboratories and a Der f solution has been prepared at 12.5 mg/ml in 70% DMSO in MilliQ water. […] Balb/c mice strain has been used for the study. These animals have been obtained from controlled breeding and were specific pathogen free. The animals have been provided by Janvier SAS, France. AD-like lesions have been induced once a week by topical application of 20 μl of Der f solution on the right ear for 5 weeks at […], day 29 and day 36. Mice have been daily treated from day 19 to day 36 with the different solutions administrated by the topical route. Measurement of ear thickness have been monitored before and 24 hours after each allergen application. After day 19, ears have been daily measured before compound application. Blood samples have been collected into appropriate vials under isoflurane anaesthesia for further analysis (IgE). Mice have been then immediately euthanized. After mouse euthanasia, the right ear has been collected and has been washed in ethanol 70% and has been rinsed in PBS. Three skin biopsies have then been collected for cytokines profiles, eosinophil peroxidase (EPO) quantification and histological slides in order to quantify the mastocytes and in order to measure the epidermis thickness.

The mark [1] stands for this setting: histological slides, 0.05% triamcinolone acetonide, ivermectin 0.003, 0.01, 0.03 and 0.1%.
The mark [2] stands for this setting: right ear skin biopsy, 0.05% triamcinolone acetonide, 0.1% tacrolimus.
[3] abbreviates: 0.05% triamcinolone acetonide, 0.1% tacrolimus.
Setting [4] is: 0.05% triamcinolone acetonide, 0.1% tacrolimus, ivermectin 0.003, 0.01, 0.03 and 0.1%.

In the case of Ivermectin, for the setting “blood sample, 0.05% triamcinolone acetonide, ivermectin 0.003, 0.01, 0.03 and 0.1%”, the “IgE secretion (total seric IgE, FIG. 4)” value was “significantly decreases”. Further, under setting [1], the “epidermal thickness (FIG. 2)” value was “lessens” and the “mastocyte count (within the dermis, FIG. 6)” value is recorded as “lessens”. Moreover, where the note is “ivermectin 0.003 to 0.1% topical”, the “dose response of the anti-inflammatory activity” value is recorded as “inverse dose response”. In addition, the “anti-inflammatory response, higher concentrations” value (ivermectin 0.01, 0.03 and 0.1% topical, compared with 0.003%) is reported as “less potent than the weakest concentration (0.003%)”. Further, the “inflammatory response, compared with positive controls” value (ivermectin at 0.003% topical vs triamcinolone acetonide at 0.05% and tacrolimus at 0.1%) is “to the same extent as triamcinolone acetonide at 0.05% and as tacrolimus at 0.1%”. In addition, the “EPO (eosinophil peroxidase, FIG. 3)” value (right ear skin biopsy, 0.05% triamcinolone acetonide, ivermectin 0.003, 0.01 and 0.03%) was “significantly decreases”. Further, the “cytokine concentration / production (IL-10, IL-13, IL-17, IL-4, IL-5, IFNg; FIG. 5)” value under setting [2] is listed as “significantly decreases”. Further, the “inflammatory response induced by Der f application” value under setting [3] is “able to reduce”. For the same compound, the “ear edema (ear thickness, FIG. 1)” value under setting [4] was “significantly decreases”.
Take `C=CC[C@@H]1/C=C(\C)C[C@H](C)C[C@H](OC)[C@H]2O[C@@](O)(C(=O)C(=O)N3CCCC[C@H]3C(=O)O[C@H](/C(C)=C/[C@@H]3CC[C@@H](O)[C@H](OC)C3)[C@H](C)[C@@H](O)CC1=O)[C@H](C)C[C@@H]2OC` [tacrolimus]: under setting [2], the “cytokine concentration / production (IL-10, IL-13, IL-17, IL-4, IL-5, IFNg; FIG. 5)” value was “totally reduces”. Also, the “interleukin IL-17 production (FIG. 5)” value (right ear skin biopsy, 0.1% tacrolimus) was “totally reduces”. Also, under setting [3], the “inflammatory response induced by Der f application” value is listed as “completely inhibit”. Under setting [4], the “ear edema (ear thickness, FIG. 1)” value was “totally reduces”.
